Data reported in patent US9657002B2, “Oxindole derivatives carrying an oxetane substituent and use thereof for treating vassopressin-related diseases” (AbbVie Deutschland GmbH & Co. KG, priority 2013, dated 2017).

What was measured:
[1] = target: human vasopressin V1a receptor (Homo sapiens, UniProt P37288); test: Vasopressin V1a receptor binding assay; details: selectivity quotient, human V1a vs human V1b
[2] = target: T1, human vasopressin V1b receptor (Homo sapiens, UniProt P47901); test: biochemical
T1 sequence (P47901 1-424): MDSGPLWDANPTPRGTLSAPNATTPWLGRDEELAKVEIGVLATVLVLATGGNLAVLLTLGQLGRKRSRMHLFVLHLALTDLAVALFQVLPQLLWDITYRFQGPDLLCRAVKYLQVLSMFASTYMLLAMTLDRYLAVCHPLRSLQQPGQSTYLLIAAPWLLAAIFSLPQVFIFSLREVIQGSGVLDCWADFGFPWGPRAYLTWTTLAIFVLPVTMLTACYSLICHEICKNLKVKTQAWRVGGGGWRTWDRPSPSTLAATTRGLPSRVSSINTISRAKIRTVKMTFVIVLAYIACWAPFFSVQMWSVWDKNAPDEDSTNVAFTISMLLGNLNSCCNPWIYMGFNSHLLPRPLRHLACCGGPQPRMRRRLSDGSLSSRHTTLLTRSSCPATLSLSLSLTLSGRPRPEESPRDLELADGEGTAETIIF

Chain of human vasopressin V1a receptor (P37288 whole entry): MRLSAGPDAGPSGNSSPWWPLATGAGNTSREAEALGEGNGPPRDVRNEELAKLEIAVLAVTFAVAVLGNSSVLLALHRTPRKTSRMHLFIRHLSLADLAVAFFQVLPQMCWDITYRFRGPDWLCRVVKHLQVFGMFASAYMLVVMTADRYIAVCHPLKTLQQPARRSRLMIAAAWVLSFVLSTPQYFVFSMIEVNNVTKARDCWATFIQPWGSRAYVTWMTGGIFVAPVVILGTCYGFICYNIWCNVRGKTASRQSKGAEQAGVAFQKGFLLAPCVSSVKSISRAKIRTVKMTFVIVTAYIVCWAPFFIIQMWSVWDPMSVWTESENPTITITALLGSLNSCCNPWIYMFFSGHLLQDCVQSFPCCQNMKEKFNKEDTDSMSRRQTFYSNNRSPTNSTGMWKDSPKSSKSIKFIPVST

| Compound | Ki(h-V1a)/Ki(h-V1b) [1] | Ki [2] |
| --- | --- | --- |
| CCOc1ncccc1[C@]1(NC(=O)N2CCN(C3CCN(C4COC4)CC3)CC2)C(=O)N(S(=O)(=O)c2ccc(OC)cc2F)c2ccc(C#N)cc21 [Example 6, (S)—N-(5-cyano-3-(2-ethoxypyridin-3-yl)-1-((2-fluoro-4-methoxyphenyl)sulfonyl)-2-oxoindolin-3-yl)-4-(1-(oxetan-3-yl)piperidin-4-yl)piperazine-1-carboxamide] | +++ (>75) | – |
| CCOc1ncccc1[C@]1(NC(=O)N2CCN(C3CCN(C4COC4)CC3)CC2)C(=O)N(S(=O)(=O)c2cc(F)c(OC)cc2OC)c2ccc(C#N)cc21 [Example 8, (S)—N-(5-cyano-3-(2-ethoxypyridin-3-yl)-1-((5-fluoro-2,4-dimethoxyphenyl)sulfonyl)-2-oxoindolin-3-yl)-4-(1-(oxetan-3-yl)piperidin-4-yl)piperazine-1-carboxamide] | +++ (>75) | – |
| CCOc1ncccc1[C@]1(NC(=O)N2CCN(C3CCN(C4COC4)CC3)CC2)C(=O)N(S(=O)(=O)c2ccc(OC)cc2OC)c2cc(F)c(F)cc21 [Example 9, (S)—N-(1-((2,4-dimethoxyphenyl)sulfonyl)-3-(2-ethoxypyridin-3-yl)-5,6-difluoro-2-oxoindolin-3-yl)-4-(1-(oxetan-3-yl)piperidin-4-yl)piperazine-1-carboxamide] | +++ (>75) | – |
| CCOc1ncccc1[C@]1(NC(=O)N2CCC(N3CCN(C4COC4)CC3)CC2)C(=O)N(S(=O)(=O)c2ccc(C#N)cc2)c2ccc(C#N)cc21 [Example 12, (S)—N-(5-cyano-1-((4-cyanophenyl)sulfonyl)-3-(2-ethoxypyridin-3-yl)-2-oxoindolin-3-yl)-4-(4-(oxetan-3-yl)piperazin-1-yl)piperidine-1-carboxamide] | ++ (25-75) | – |
| CCOc1ncccc1[C@]1(NC(=O)N2CCC(N3CCN(C4COC4)CC3)CC2)C(=O)N(S(=O)(=O)c2ccc(OC)cc2)c2ccc(C#N)cc21 [Example 13, (S)—N-(5-cyano-3-(2-ethoxypyridin-3-yl)-1-((4-methoxyphenyl)sulfonyl)-2-oxoindolin-3-yl)-4-(4-(oxetan-3-yl)piperazin-1-yl)piperidine-1-carboxamide] | +++ (>75) | – |
| COc1ccc(S(=O)(=O)N2C(=O)C(NC(=O)N3CCN(C4CCN(C5COC5)CC4)CC3)(c3cccnc3OC)c3cc(C#N)ccc32)c(OC)c1 (stereo not shown) [Example 15, N-(5-cyano-1-((2,4-dimethoxyphenyl)sulfonyl)-3-(2-methoxypyridin-3-yl)-2-oxoindolin-3-yl)-4-(1-(oxetan-3-yl)piperidin-4-yl)piperazine-1-carboxamide] | +++ (>75) | – |
| CCOc1ncccc1[C@]1(NC(=O)N2CCC(N3C[C@@H]4C[C@H]3CN4C3COC3)CC2)C(=O)N(S(=O)(=O)c2ccc(OC)cc2OC)c2ccc(C#N)cc21 [Example 17, N—((S)-5-cyano-1-((2,4-dimethoxyphenyl)sulfonyl)-3-(2-ethoxypyridin-3-yl)-2-oxoindolin-3-yl)-4-((1S,4S)-5-(oxetan-3-yl)-2,5-diazabicyclo[2.2.1]heptan-2-yl)piperidine-1-carboxamide] | ++ (25-75) | – |
| CCOc1ncccc1[C@]1(NC(=O)N2CCN(C3CCN(C4COC4)CC3)CC2)C(=O)N(S(=O)(=O)c2ccc(OC)c(C)c2C)c2ccc(C#N)cc21 [Example 18, (S)—N-(5-cyano-3-(2-ethoxypyridin-3-yl)-1-((4-methoxy-2,3-dimethylphenyl)sulfonyl)-2-oxoindolin-3-yl)-4-(1-(oxetan-3-yl)piperidin-4-yl)piperazine-1-carboxamide] | + (10-<25) | – |
| CCOc1ncccc1[C@]1(NC(=O)N2CCN(C3CCN(C4COC4)CC3)CC2)C(=O)N(S(=O)(=O)c2ccc(OC)cc2)c2ccc(C#N)cc21 [Example 24, N-[(3S)-5-cyano-3-(2-ethoxy-3-pyridyl)-1-(4-methoxyphenyl)sulfonyl-2-oxo-indolin-3-yl]-4-[1-(oxetan-3-yl)-4-piperidyl]piperazine-1-carboxamide] | +++ (>75) | 10 to 100 nM |
| CCOc1ncccc1[C@]1(NC(=O)N2CCN(C3CCN(C4COC4)CC3)CC2)C(=O)N(S(=O)(=O)c2ccc(F)cc2OC)c2ccc(C#N)cc21 [Example 26, N-[(3S)-5-cyano-3-(2-ethoxy-3-pyridyl)-1-(4-fluoro-2-methoxy-phenyl)sulfonyl-2-oxo-indolin-3-yl]-4-[1-(oxetan-3-yl)-4-piperidyl]piperazine-1-carboxamide] | +++ (>75) | 1 to 10 nM |
| COc1ccc(S(=O)(=O)N2C(=O)[C@@](NC(=O)N3CCC(C4CCN(C5COC5)CC4)CC3)(c3cccnc3OC)c3cc(C#N)ccc32)c(OC)c1 [Example 27, N-[(3S)-5-cyano-1-(2,4-dimethoxyphenyl)sulfonyl-3-(2-methoxy-3-pyridyl)-2-oxo-indolin-3-yl]-4-[1-(oxetan-3-yl)-4-piperidyl]piperidine-1-carboxamide] | +++ (>75) | < 1 nM |
| COc1ccc(S(=O)(=O)N2C(=O)[C@@](NC(=O)N3CCN(C4CCN(C5COC5)CC4)CC3)(c3cccnc3OC)c3cc(C#N)ccc32)nc1 [Example 29, N-[(3S)-5-cyano-3-(2-methoxy-3-pyridyl)-1-[(5-methoxy-2-pyridyl)sulfonyl]-2-oxo-indolin-3-yl]-4-[1-(oxetan-3-yl)-4-piperidyl]piperazine-1-carboxamide] | + (10-<25) | 1 to 10 nM |
| COc1cc(F)ccc1S(=O)(=O)N1C(=O)[C@@](NC(=O)N2CCN(C3CCN(C4COC4)CC3)CC2)(c2cccnc2OC)c2cc(C#N)ccc21 [Example 30, N-[(3S)-5-cyano-1-(4-fluoro-2-methoxy-phenyl)sulfonyl-3-(2-methoxy-3-pyridyl)-2-oxo-indolin-3-yl]-4-[1-(oxetan-3-yl)-4-piperidyl]piperazine-1-carboxamide] | +++ (>75) | 1 to 10 nM |
| COc1ccc(S(=O)(=O)N2C(=O)[C@@](NC(=O)N3CCC(C4CCN(C5COC5)CC4)CC3)(c3cccnc3OC)c3cc(C#N)ccc32)nc1 [Example 39, N-[(3S)-5-cyano-3-(2-methoxy-3-pyridyl)-1-[(5-methoxy-2-pyridyl)sulfonyl]-2-oxo-indolin-3-yl]-4-[1-(oxetan-3-yl)-4-piperidyl]piperidine-1-carboxamide] | – | < 1 nM |

More lines, now with the values ahead:

| Ki(h-V1a)/Ki(h-V1b) [1] | Ki [2] | Compound |
| --- | --- | --- |
| +++ (>75) | – | CCOc1ncccc1[C@]1(NC(=O)N2CCN(C3CCN(C4COC4)CC3)CC2)C(=O)N(S(=O)(=O)c2ccc(OC)cc2OC)c2ccc(C#N)cc21 [Example 1, (S)—N-(5-cyano-1-((2,4-dimethoxyphenyl)sulfonyl)-3-(2-ethoxypyridin-3-yl)-2-oxoindolin-3-yl)-4-(1-(oxetan-3-yl)piperidin-4-yl)piperazine-1-carboxamide] |
| +++ (>75) | < 1 nM | CCOc1ncccc1[C@]1(NC(=O)N2CCN(C3CCN(C4COC4)CC3)CC2)C(=O)N(S(=O)(=O)c2ccc(OC)cc2OC)c2cc(F)c(C#N)cc21 [Example 7A, (S)—N-(5-cyano-1-((2,4-dimethoxyphenyl)sulfonyl)-3-(2-ethoxypyridin-3-yl)-6-fluoro-2-oxoindolin-3-yl)-4-(1-(oxetan-3-yl)piperidin-4-yl)piperazine-1-carboxamide] |
| +++ (>75) | – | CCOc1ncccc1[C@]1(NC(=O)N2CCN(C3CCN(C4COC4)CC3)CC2)C(=O)N(S(=O)(=O)c2ccc(OC)cc2OC)c2ccc(Cl)cc21 [Example 10, (S)—N-(5-chloro-1-((2,4-dimethoxyphenyl)sulfonyl)-3-(2-ethoxypyridin-3-yl)-2-oxoindolin-3-yl)-4-(1-(oxetan-3-yl)piperidin-4-yl)piperazine-1-carboxamide] |
| +++ (>75) | < 1 nM | CCOc1ncccc1[C@]1(NC(=O)N2CCC(C3CCN(C4COC4)CC3)CC2)C(=O)N(S(=O)(=O)c2ccc(OC)cc2OC)c2ccc(C#N)cc21 [Example 11, (S)—N-(5-cyano-1-((2,4-dimethoxyphenyl)sulfonyl)-3-(2-ethoxypyridin-3-yl)-2-oxoindolin-3-yl)-1′-(oxetan-3-yl)-[4,4′-bipiperidine]-1-carboxamide] |
| +++ (>75) | 10 to 100 nM | CCOc1ncccc1[C@]1(NC(=O)N2CCN(C3CCN(CC4COC4)CC3)CC2)C(=O)N(S(=O)(=O)c2ccc(OC)cc2OC)c2ccc(C#N)cc21 [Example 19, (S)—N-(5-cyano-1-((2,4-dimethoxyphenyl)sulfonyl)-3-(2-ethoxypyridin-3-yl)-2-oxoindolin-3-yl)-4-(1-(oxetan-3-ylmethyl)piperidin-4-yl)piperazine-1-carboxamide] |
| +++ (>75) | 1 to 10 nM | CCOc1ncccc1[C@]1(NC(=O)N2CCN(C3CCN(C4COC4)CC3)CC2)C(=O)N(S(=O)(=O)c2ccc(OC)cn2)c2ccc(C#N)cc21 [Example 25, N-[(3S)-5-cyano-3-(2-ethoxy-3-pyridyl)-1-[(5-methoxy-2-pyridyl)sulfonyl]-2-oxo-indolin-3-yl]-4-[1-(oxetan-3-yl)-4-piperidyl]piperazine-1-carboxamide] |
| +++ (>75) | 10 to 100 nM | CCOc1ncccc1[C@]1(NC(=O)N2CCN(C3CCN(C4COC4)CC3)CC2)C(=O)N(S(=O)(=O)c2ccc(F)cc2)c2ccc(C#N)cc21 [Example 28, N-[(3S)-5-cyano-3-(2-ethoxy-3-pyridyl)-1-(4-fluorophenyl)sulfonyl-2-oxo-indolin-3-yl]-4-[1-(oxetan-3-yl)-4-piperidyl]piperazine-1-carboxamide] |
